# Results taken from ChEMBL document CHEMBL1681675, “3,5-diarylazoles as novel and selective inhibitors of protein kinase D” (Bioorg Med Chem Lett, 2011).
# Assay: AUC (0 to 8 hrs) in Sprague-Dawley rat at 2 mg/kg, iv or 5 mg/kg, po
# Assay type: ADME, organism-based
# Details: plasma
row,AUC(0-t) [µM·h],SMILES
1,0.84,C[C@H](C#N)NC(=O)c1cccc(-c2cc(-c3ccc(CNC4CCOCC4)cc3)on2)c1

# Assay: Oral bioavailability in Sprague-Dawley rat at 5 mg/kg
# Assay type: ADME, organism-based
# Details: in vivo
row,bioavailability [%],SMILES
1,38,C[C@H](C#N)NC(=O)c1cccc(-c2cc(-c3ccc(CNC4CCOCC4)cc3)on2)c1

# Assay: Solubility of the compound
# Assay type: physicochemical
# Details: not given
row,solubility [µM],SMILES
1,170,CN1CCN(c2ccc(-c3cc(-c4cccc(C(=O)NCCO)c4)n[nH]3)cc2)CC1
2,760,COCCNC(=O)c1cccc(-c2cc(-c3ccc(N4CCN(C)CC4)cc3)[nH]n2)c1
3,> 960,CN(C)CCNC(=O)c1cccc(-c2cc(-c3ccc(N4CCN(C)CC4)cc3)[nH]n2)c1
4,270,CC(C)NC(=O)c1cccc(-c2cc(-c3ccc(N4CCN(C)CC4)cc3)[nH]n2)c1
5,< 10,CC(C)NC(=O)c1cccc(-c2cc(-c3ccc(N4CCN(C)CC4)c(-c4ccncc4)c3)[nH]n2)c1
6,910,COCCNCc1ccc(-c2cc(-c3cccc(C(=O)NC(C)C)c3)n[nH]2)cc1
7,240,C[C@H](C#N)NC(=O)c1cccc(-c2cc(-c3ccc(CNC4CCOCC4)cc3)on2)c1
8,170,N#CCNC(=O)c1cccc(-c2cc(-c3ccc(CNC4CCOCC4)cc3)on2)c1
9,< 10,C[C@@H](C#N)NC(=O)c1cccc(-c2cc(-c3ccc(N4CCN(C)CC4)cc3)on2)c1
10,> 990,CC(C)NCc1ccc(-c2cc(-c3cccc(C(=O)N[C@H](C)C#N)c3)[nH]n2)cc1
11,220,CC(C)NC(=O)c1cccc(-c2cc(-c3ccc(CNC4CC4)cc3)[nH]n2)c1
12,70,CC(C)(C#N)NC(=O)c1cccc(-c2cc(-c3ccc(CNC4CCOCC4)cc3)on2)c1
13,650,CN1CCN(c2ccc(-c3cc(-c4cccc(C(=O)NCCC#N)c4)n[nH]3)cc2)CC1
14,330,CCCNC(=O)c1cccc(-c2cc(-c3ccc(N4CCN(C)CC4)cc3)[nH]n2)c1
15,170,CN1CCN(c2ccc(-c3cc(-c4cccc(C(=O)NCC(F)(F)F)c4)n[nH]3)cc2)CC1
16,< 10,C[C@H](C#N)NC(=O)c1cccc(-c2cc(-c3ccc(N4CCN(C)CC4)cc3)on2)c1
17,< 10,CC(C)NC(=O)c1cccc(-c2cc(-c3ccc(CNCC(F)(F)F)cc3)[nH]n2)c1
18,> 870,CC(C)NCc1ccc(-c2cc(-c3cccc(C(=O)N[C@H](C)C#N)c3)no2)cc1
19,> 970,CC(C)NCc1ccc(-c2cc(-c3cccc(C(=O)NC(C)C)c3)[nH]n2)cc1
20,50,CN1CCN(c2ccc(-c3cc(-c4cccc(C(=O)NCC#N)c4)n[nH]3)cc2)CC1
21,40,CC(C)NC(=O)c1cccc(-c2cc(-c3ccc(N4CCN(C)CC4)c(Br)c3)[nH]n2)c1
22,140,CC(C)NC(=O)c1cccc(-c2cc(-c3ccc(CNC4CCOCC4)cc3)on2)c1
23,< 10,CN1CCN(c2ccc(-c3cc(-c4cccc(C(=O)NCC#N)c4)no3)cc2)CC1
24,< 10,CN1CCN(c2ccc(-c3cc(-c4cccc(C(=O)NCC#N)c4)n[nH]3)cc2Br)CC1
25,< 10,CC(C)NC(=O)c1cccc(-c2cc(-c3ccc(N4CCN(C)CC4)c(-c4ccccc4)c3)[nH]n2)c1
26,110,C[C@@H](C#N)NC(=O)c1cccc(-c2cc(-c3ccc(CNC4CCOCC4)cc3)on2)c1

# Assay: Volume of distribution at steady state in Sprague-Dawley rat at 2 mg/kg, iv or 5 mg/kg, po
# Assay type: ADME, organism-based
# Details: in vivo, read-out: Vdss
row,Vd [L/kg],SMILES
1,6,C[C@H](C#N)NC(=O)c1cccc(-c2cc(-c3ccc(CNC4CCOCC4)cc3)on2)c1
